Here are results for 29 molecules from patent publication US20080045537A1, “Chemical Compounds” (priority 2004, published 2008).

This test concerns HIV-1 IIIB (T-tropic, CXCR4 utilizing). The experiment in a line: HOS HIV-1 infectivity assay. The test is classed as cell-based. The settings on record: Human immunodeficiency virus 1, IIIB; as determined by the infectivity assay; strain not stated in Table 2; read-out: Activity Level. On the procedure:
Compounds were profiled against two HIV-1 viruses, the M-tropic (CCR5 utilizing) Ba-L strain and the T-tropic (CXCR4 utilizing) IIIB strain. Both viruses were propagated in human peripheral blood lymphocytes. Compounds were tested for there ability to block infection of the HOS cell line (expressing hCXCR4/hCCR5/hCD4/pHIV-LTR-luciferase) by either HIV-1 Ba-L or HIV-1 IIIB. Compound cytotoxicity was also examined in the absence of virus addition.
HOS cells (expressing hCXCR4/hCCR5/hCD4/pHIV-LTR-luciferase) were harvested and diluted in Dulbeccos modified Eagles media supplemented with 2% FCS and non-essential amino acid to a concentration of 60,000 cells/ml. The cells were plated into 96-well plates (100 ul per well) and the plates were placed in a tissue culture incubator (37° C.; 5% CO2/95% air) for a period of 24 h.
Subsequently, 50 ul of the desired drug solution (4 times the final concentration) was added to each well and the plates were returned to the tissue culture incubator (37° C.; 5% CO2/95% air) for 1 h. Following this incubation 50 ul of diluted virus was added to each well (approximately 2 million RLU per well of virus). The plates were returned to the tissue culture incubator (37° C.; 5% CO2/95% air) and were incubated for a further 96 h.
Following this incubation the endpoint for the virally infected cultures was quantified following addition of Steady-Glo Luciferase assay system reagent (Promega, Madison, Wis.). Cell viability or non-infected cultures was measured using a CellTiter-Glo luminescent cell viability assay system (Promega, Madison, Wis.). All luminescent readouts are performed on a Topcount luminescence detector (Packard, Meridien, Conn.).

The structures appear in SMILES notation.

As to `CN(Cc1nc2cc(C(N)=O)ccc2[nH]1)C1CCCc2cccnc21` (centres unmarked) [Example 37, 2-{[Methyl(5,6,7,8-tetrahydroquinolin-8-yl)amino]methyl}-1H-benzimidazole-5-carboxamide], the IC50 is under 100 nM.

Consider `CN(Cc1nc2cc(C(=O)NCC3CCNCC3)ccc2[nH]1)C1CCCc2cccnc21` (centres unmarked) [Example 38, 2-{[Methyl(5,6,7,8-tetrahydroquinolin-8-yl)amino]methyl}-N-(piperidin-4-ylmethyl)-1H-benzimidazole-5-carboxamide], for which the IC50 is 500 to 10000 nM.

With `CN(Cc1nc2cc(C(=O)NCc3cccnc3)ccc2[nH]1)C1CCCc2cccnc21` (centres unmarked) [Example 39, 2-{[Methyl(5,6,7,8-tetrahydro-8-quinolinyl)amino]methyl}-N-(3-pyridinylmethyl)-1H-benzimidazole-5-carboxamide], the IC50 was in the range of 500 to 10000 nM.

Take `CN(Cc1nc2cc(C(=O)NCc3ccncc3)ccc2[nH]1)C1CCCc2cccnc21` (centres unmarked) [Example 40, 2-{[Methyl(5,6,7,8-tetrahydro-8-quinolinyl)amino]methyl}-N-(4-pyridinylmethyl)-1H-benzimidazole-5-carboxamide]: the IC50 lay within 500 to 10000 nM.

As to `CN(Cc1nc2cc(C(=O)NCC3CCCCC3)ccc2[nH]1)C1CCCc2cccnc21` (centres unmarked) [Example 41, N-(Cyclohexylmethyl)-2-{[methyl(5,6,7,8-tetrahydro-8-quinolinyl)amino]methyl}-1H-benzimidazole-5-carboxamide], the IC50 lay in the range of 500 to 10000 nM.

With `CN(Cc1nc2ccc(C(=O)N3CCC(CCN4CCCC4)CC3)cc2[nH]1)C1CCCc2cccnc21` (centres unmarked) [Example 42, N-Methyl-N-{[5-({4-[2-(1-pyrrolidinyl)ethyl]-1-piperidinyl}carbonyl)-1H-benzimidazol-2-yl]methyl}-5,6,7,8-tetrahydro-8-quinolinamine], the IC50 was 500 to 10000 nM.

Consider `CCN(Cc1nc2ccc(C(=O)NCCc3cncn3C)cc2[nH]1)C1CCCc2cccnc21` (centres unmarked) [Example 43, 2-{[ethyl(5,6,7,8-tetrahydro-8-quinolinyl)amino]methyl}-N-[2-(1-methyl-1H-imidazol-5-yl)ethyl]-1H-benzimidazole-5-carboxamide], for which the IC50 lay within 100 to 500 nM.

Take `CCN(Cc1nc2cc(C(=O)NCCCCCN)ccc2[nH]1)C1CCCc2cccnc21` (centres unmarked) [Example 44, N-(5-Aminopentyl)-2-{[ethyl(5,6,7,8-tetrahydro-8-quinolinyl)amino]methyl}-1H-benzimidazole-5-carboxamide]: the IC50 was 500 to 10000 nM.

Take `CCN(CC)CCN1CCN(C(=O)c2ccc3[nH]c(CN(CC)C4CCCc5cccnc54)nc3c2)CC1` (centres unmarked) [Example 46, N-{[5-({4-[2-(Diethylamino)ethyl]-1-piperazinyl}carbonyl)-1H-benzimidazol-2-yl]methyl}-N-ethyl-5,6,7,8-tetrahydro-8-quinolinamine]: the IC50 was in the range of 500 to 10000 nM.

As to `CCN(Cc1nc2cc(C(=O)N3CCN(C)CC3)ccc2[nH]1)C1CCCc2cccnc21` (centres unmarked) [Example 48, N-Ethyl-N-({5-[(4-methyl-1-piperazinyl)carbonyl]-1H-benzimidazol-2-yl}methyl)-5,6,7,8-tetrahydro-8-quinolinamine], the IC50 fell in the range of 100 to 500 nM.

In the case of `CCN(Cc1nc2cc(C(=O)N(C)CCN(C)C)ccc2[nH]1)C1CCCc2cccnc21` (centres unmarked) [Example 49, N-[2-(Dimethylamino)ethyl]-2-{[ethyl(5,6,7,8-tetrahydro-8-quinolinyl)amino]methyl}-N-methyl-1H-benzimidazole-5-carboxamide], the IC50 fell in the range of 500 to 10000 nM.

For `CCN(Cc1nc2cc(C(=O)NCCN(C)C)ccc2[nH]1)C1CCCc2cccnc21` (centres unmarked) [Example 50, N-[2-(Dimethylamino)ethyl]-2-{[ethyl(5,6,7,8-tetrahydro-8-quinolinyl)amino]methyl}-1H-benzimidazole-5-carboxamide], the IC50 fell in the range of 100 to 500 nM.

Consider `CNCCN(C)C(=O)c1ccc2[nH]c(CN(C)C3CCCc4cccnc43)nc2c1` (centres unmarked) [Example 51, N-Methyl-N-[2-(methylamino)ethyl]-2-{[methyl(5,6,7,8-tetrahydro-8-quinolinyl)amino]methyl}-1H-benzimidazole-5-carboxamide], for which the IC50 was under 100 nM.

Regarding `CN(C)CCNC(=O)c1ccc2[nH]c(CN(C)C3CCCc4cccnc43)nc2c1` (centres unmarked) [Example 52, N-[2-(Dimethylamino)ethyl]-2-{[methyl(5,6,7,8-tetrahydro-8-quinolinyl)amino]methyl}-1H-benzimidazole-5-carboxamide], the IC50 is under 100 nM.

On to `CNCCNC(=O)c1ccc2[nH]c(CN(C)C3CCCc4cccnc43)nc2c1` (centres unmarked) [Example 53, N-[2-(Methylamino)ethyl]-2-{[methyl(5,6,7,8-tetrahydro-8-quinolinyl)amino]methyl}-1H-benzimidazole-5-carboxamide], for which the IC50 is under 100 nM.

For the molecule `CN(Cc1nc2cc(C(=O)NCC(C)(C)CN)ccc2[nH]1)C1CCCc2cccnc21` (centres unmarked) [Example 54, N-(3-Amino-2,2-dimethylpropyl)-2-{[methyl(5,6,7,8-tetrahydro-8-quinolinyl)amino]methyl}-1H-benzimidazole-5-carboxamide], the IC50 was 100 to 500 nM.

Turning to `CN(C)CCN(C)C(=O)c1ccc2[nH]c(CN(C)C3CCCc4cccnc43)nc2c1` (centres unmarked) [Example 55, N-[2-(Dimethylamino)ethyl]-N-methyl-2-{[methyl(5,6,7,8-tetrahydro-8-quinolinyl)amino]methyl}-1H-benzimidazole-5-carboxamide], the IC50 is under 100 nM.

On to `CN(Cc1nc2cc(C(=O)N3CCN(C(=O)OCc4ccccc4)CC3)ccc2[nH]1)C1CCCc2cccnc21` (centres unmarked) [Example 56, Phenylmethyl 4-[(2-{[methyl(5,6,7,8-tetrahydro-8-quinolinyl)amino]methyl}-1H-benzimidazol-5-yl)carbonyl]-1-piperazinecarboxylate], for which the IC50 was in the range of 500 to 10000 nM.

In the case of `CN(Cc1nc2cc(C(=O)N3CCNCC3)ccc2[nH]1)C1CCCc2cccnc21` (centres unmarked) [Example 57, N-Methyl-N-{[5-(1-piperazinylcarbonyl)-1H-benzimidazol-2-yl]methyl}-5,6,7,8-tetrahydro-8-quinolinamine], the IC50 is 500 to 10000 nM.

As for `CN1CCN(C(=O)c2ccc3[nH]c(CN(C)C4CCCc5cccnc54)nc3c2)CC1` (centres unmarked) [Example 58, N-Methyl-N-({5-[(4-methyl-1-piperazinyl)carbonyl]-1H-benzimidazol-2-yl}methyl)-5,6,7,8-tetrahydro-8-quinolinamine], the IC50 was 100 to 500 nM.

As to `CN(Cc1nc2cc(C(=O)N3CCN(Cc4ccccc4)CC3)ccc2[nH]1)C1CCCc2cccnc21` (centres unmarked) [Example 59, N-Methyl-N-[(5-{[4-(phenylmethyl)-1-piperazinyl]carbonyl}-1H-benzimidazol-2-yl)methyl]-5,6,7,8-tetrahydro-8-quinolinamine], the IC50 is 500 to 10000 nM.

For `CN(Cc1nc2cccc(C(=O)NCCCCCN)c2[nH]1)C1CCCc2cccnc21` (centres unmarked) [Example 61, N-(5-Aminopentyl)-2-{[methyl(5,6,7,8-tetrahydro-8-quinolinyl)amino]methyl}-1H-benzimidazole-4-carboxamide], the IC50 lay within 100 to 500 nM.

For `CN(Cc1nc2cccc(C(=O)N3CCN(Cc4ccccc4)CC3)c2[nH]1)C1CCCc2cccnc21` (centres unmarked) [Example 62, N-Methyl-N-[(4-{[4-(phenylmethyl)-1-piperazinyl]carbonyl}-1H-benzimidazol-2-yl)methyl]-5,6,7,8-tetrahydro-8-quinolinamine], the IC50 lay in the range of 500 to 10000 nM.

Turning to `COCCNC(=O)c1cccc2nc(CN(C)C3CCCc4cccnc43)[nH]c12` (centres unmarked) [Example 64, N-[2-(Methyloxy)ethyl]-2-{[methyl(5,6,7,8-tetrahydro-8-quinolinyl)amino]methyl}-1H-benzimidazole-4-carboxamide], the IC50 was 500 to 10000 nM.

As to `CN(Cc1nc2c(C(=O)NCCc3cncn3C)cccc2[nH]1)C1CCCc2cccnc21` (centres unmarked) [Example 67, N-[2-(1-methyl-1H-imidazol-5-yl)ethyl]-2-{[methyl(5,6,7,8-tetrahydro-8-quinolinyl)amino]methyl}-1H-benzimidazole-4-carboxamide], the IC50 is 100 to 500 nM.

Consider `CN(Cc1nc2c(C(=O)N3CCN(Cc4ccccn4)CC3)cccc2[nH]1)C1CCCc2cccnc21` (centres unmarked) [Example 68, N-Methyl-N-[(4-{[4-(2-pyridinylmethyl)-1-piperazinyl]-carbonyl}-1H-benzimidazol-2-yl)methyl]-5,6,7,8-tetrahydro-8-quinolinamine], for which the IC50 fell in the range of 500 to 10000 nM.

In the case of `CN(Cc1nc2c(C(=O)NCCc3cccnc3)cccc2[nH]1)C1CCCc2cccnc21` (centres unmarked) [Example 69, 2-{[Methyl(5,6,7,8-tetrahydro-8-quinolinyl)amino]methyl}-N-[2-(3-pyridinyl)ethyl]-1H-benzimidazole-4-carboxamide], the IC50 lay in the range of 500 to 10000 nM.

Turning to `CN(Cc1nc2c(C(=O)NCCc3ccncc3)cccc2[nH]1)C1CCCc2cccnc21` (centres unmarked) [Example 71, 2-{[Methyl(5,6,7,8-tetrahydro-8-quinolinyl)amino]methyl}-N-[2-(4-pyridinyl)ethyl]-1H-benzimidazole-4-carboxamide], the IC50 was in the range of 500 to 10000 nM.

For `CN1CCN(CCCNC(=O)c2cccc3[nH]c(CN(C)C4CCCc5cccnc54)nc23)CC1` (centres unmarked) [Example 73, N-[3-(4-Methyl-1-piperazinyl)propyl]-2-{[methyl(5,6,7,8-tetrahydro-8-quinolinyl)amino]methyl}-1H-benzimidazole-4-carboxamide], the IC50 was in the range of 100 to 500 nM.
